Laboratory results as given in ChEMBL document CHEMBL2439977, “Discovery of novel bacterial RNA polymerase inhibitors: pharmacophore-based virtual screening and hit optimization” (J Med Chem, 2013).
In brackets after ≈: the same amount, converted by molar mass. Activity calls are given as the source filed them. The calls are words filed in the database; no cut-off is given here.

Tests used:
[1] = tested on: Escherichia coli; assay: Ratio of IC50 for Escherichia coli RNA polymerase core enzyme to IC50 for Escherichia coli RNA polymerase holo enzyme
[2] = Inhibition of Escherichia coli RNA polymerase core enzyme by transcription assay
[3] = Inhibition of Escherichia coli RNA polymerase holo enzyme by transcription assay
[4] = Inhibition of Escherichia coli RNA polymerase-RNA polymerase sigma factor RpoD interaction by ELISA
[5] = tested on: Escherichia coli; assay: Antibacterial activity against Escherichia coli expressing TolC mutant; format: functional
[6] = tested on: Escherichia coli; assay: Inhibition of Escherichia coli RNA polymerase at 200 uM by transcription assay
[7] = Inhibition of Escherichia coli RNA polymerase by transcription assay
[8] = tested on: Escherichia coli; assay: Induction of resistant frequency in Escherichia coli expressing TolC mutant at 2 times MIC treated for every 3 days; format: functional, organism-based
[9] = tested on: Bacillus subtilis; assay: Antibacterial activity against Bacillus subtilis; format: functional
[10] = tested on: Staphylococcus aureus; assay: Antibacterial activity against Staphylococcus aureus; format: functional
[11] = tested on: Pseudomonas aeruginosa; assay: Antibacterial activity against Pseudomonas aeruginosa PAO1; format: functional
[12] = tested on: Escherichia coli; assay: Antibacterial activity against Escherichia coli K-12; format: functional
[13] = tested on: Escherichia coli; assay: Inhibition of Escherichia coli RNA polymerase-RNA polymerase sigma factor RpoD interaction at 10 uM by ELISA
[14] = tested on: Escherichia coli; assay: Inhibition of Escherichia coli RNA polymerase-RNA polymerase sigma factor RpoD interaction at 50 uM by ELISA
[15] = tested on: Escherichia coli; assay: Inhibition of Escherichia coli RNA polymerase at 50 uM by transcription assay
[16] = tested on: Escherichia coli; assay: Inhibition of lipid synthesis in Escherichia coli expressing TolC mutant at 4 times MIC after 45 mins; format: functional, organism-based
[17] = tested on: Escherichia coli; assay: Inhibition of RNA synthesis in Escherichia coli expressing TolC mutant at 4 times MIC after 45 mins; format: functional, organism-based
[18] = tested on: Escherichia coli; assay: Inhibition of protein synthesis in Escherichia coli expressing TolC mutant at 4 times MIC after 45 mins; format: functional, organism-based
[19] = tested on: Escherichia coli; assay: Inhibition of DNA synthesis in Escherichia coli expressing TolC mutant at 4 times MIC after 45 mins; format: functional, organism-based

## O=C(Nc1ccccc1C(=O)O)c1ccc(-c2ccccc2)c(Oc2ccccc2)c1
[1]
  Ratio IC50: 3
[2]
  IC50: 36 µM
[3]
  IC50: 20 µM
[4]
  IC50: 41 µM
[5]
  MIC: 13 µg/mL (≈ 31.8 µM)
[6]
  inhibition: 100%
[7]; read-out: IC50
  IC50: 20 µM

## CO[C@H]1/C=C/O[C@@]2(C)Oc3c(C)c(O)c4c(O)c(c(/C=N/N5CCN(C)CC5)c(O)c4c3C2=O)NC(=O)/C(C)=C\C=C\[C@H](C)[C@H](O)[C@@H](C)[C@@H](O)[C@@H](C)[C@H](OC(C)=O)[C@@H]1C [RIFAMPIN]
[8]
  Activity: Active
[9]
  MIC: 5 µg/mL (≈ 6.08 µM)
[10]
  MIC: 0.02 µg/mL (≈ 0.0243 µM)
[11]
  MIC: 13 µg/mL (≈ 15.8 µM)
[12]
  MIC: 7 µg/mL (≈ 8.51 µM)
[1]
  Ratio IC50: 1
[2]
  IC50: 0.016 µM
[3]
  IC50: 0.027 µM
[13]
  inhibition: < 5%
[5]
  MIC: 10 µg/mL (≈ 12.2 µM)
[7]; read-out: IC50
  IC50: 0.03 µM

## O=C(Nc1cc(Cl)ccc1C(=O)O)c1cccc(Oc2ccccc2)c1
[9]
  MIC: 3 µg/mL (≈ 8.16 µM)
[10]
  MIC: 14 µg/mL (≈ 38.1 µM)
[11]
  MIC: > 50 µg/mL
[12]
  MIC: > 50 µg/mL
[5]
  MIC: 3 µg/mL (≈ 8.16 µM)
[7]; read-out: IC50
  IC50: 44 µM

## O=C(Nc1ccc(OC(F)(F)F)cc1C(=O)O)c1ccc(-c2ccccc2)cc1
[5]
  MIC: 4 µg/mL (≈ 9.97 µM)
[7]; read-out: IC50
  IC50: 31 µM

## O=C(Nc1cc([N+](=O)[O-])ccc1C(=O)O)c1ccc(-c2ccccc2)cc1
[5]
  MIC: > 25 µg/mL
[7]; read-out: IC50
  IC50: 36 µM

## COc1cc(NC(=O)c2ccc(-c3ccccc3)cc2)c(C(=O)O)cc1OC
[5]
  MIC: 19 µg/mL (≈ 50.3 µM)
[6]
  inhibition: 35%

## COc1cc(NC(=O)c2cccc(Oc3ccccc3)c2)c(C(=O)O)cc1OC
[5]
  MIC: 6 µg/mL (≈ 15.3 µM)
[7]; read-out: IC50
  IC50: 154 µM

## O=C(Nc1ccccc1C(=O)O)c1ccccc1
[5]
  MIC: > 100 µg/mL
[7]
  IC50: Not Active

## O=C(Nc1ccc(O)cc1C(=O)O)c1ccc(-c2ccccc2)cc1
[5]
  MIC: 31 µg/mL (≈ 93 µM)
[6]
  inhibition: 17%

## O=C(Nc1ccc(Br)cc1C(=O)O)c1cccc(Cc2ccccc2)c1
[5]
  MIC: 2 µg/mL (≈ 4.87 µM)
[7]; read-out: IC50
  IC50: 37 µM

## O=C(Nc1ccc(Br)cc1C(=O)O)c1cccc(Oc2ccccc2)c1
[5]
  MIC: 3 µg/mL (≈ 7.28 µM)
[7]; read-out: IC50
  IC50: 34 µM

## C=CCN1C(=O)/C(=C/c2ccc(-c3cccc(C(=O)O)c3)o2)SC1=S
[1]
  Ratio IC50: 2.6
[2]
  IC50: 57 µM
[3]
  IC50: 38 µM
[4]
  IC50: 30 µM

## O=C(Nc1cc(F)ccc1C(=O)O)c1ccc(-c2ccccc2)c(Oc2ccccc2)c1
[9]
  MIC: > 25 µg/mL
[10]
  MIC: 17 µg/mL (≈ 39.8 µM)
[11]
  MIC: > 25 µg/mL
[12]
  MIC: > 25 µg/mL
[5]
  MIC: > 25 µg/mL
[7]; read-out: IC50
  IC50: 13 µM

## O=C(Nc1ccc(Cl)cc1C(=O)O)c1ccc(-c2ccccc2)cc1
[5]
  MIC: 2 µg/mL (≈ 5.69 µM)
[7]; read-out: IC50
  IC50: 46 µM

## O=C(Nc1cc(Br)ccc1C(=O)O)c1ccc(-c2ccccc2)cc1
[1]
  Ratio IC50: 3
[2]
  IC50: 39 µM
[3]
  IC50: 27 µM
[4]
  IC50: 68 µM
[5]
  MIC: 2 µg/mL (≈ 5.05 µM)
[7]; read-out: IC50
  IC50: 28 µM

## O=C(Nc1cc(Cl)ccc1C(=O)O)c1ccc(-c2ccccc2)c(Oc2ccccc2)c1
[1]
  Ratio IC50: 2.9
[2]
  IC50: 12 µM
[3]
  IC50: 7 µM
[4]
  IC50: 33 µM
[5]
  MIC: > 25 µg/mL
[7]; read-out: IC50
  IC50: 9 µM

## O=C(Nc1ccc(F)cc1C(=O)O)c1cccc(Oc2ccccc2)c1
[9]
  MIC: 4 µg/mL (≈ 11.4 µM)
[10]
  MIC: 48 µg/mL (≈ 137 µM)
[11]
  MIC: > 100 µg/mL
[12]
  MIC: > 100 µg/mL
[5]
  MIC: 5 µg/mL (≈ 14.2 µM)
[7]; read-out: IC50
  IC50: 98 µM

## O=C(Nc1cccc(F)c1C(=O)O)c1ccc(-c2ccccc2)cc1
[5]
  MIC: 34 µg/mL (≈ 101 µM)
[6]
  inhibition: 14%

## O=C(Nc1cccc(Cl)c1C(=O)O)c1ccc(-c2ccccc2)cc1
[14]
  inhibition: < 10%
[5]
  MIC: 57 µg/mL (≈ 162 µM)
[7]
  IC50: Not Active

## Cc1ccc(NC(=O)c2ccc(-c3ccccc3)cc2)c(C(=O)O)c1
[5]
  MIC: 7 µg/mL (≈ 21.1 µM)
[7]; read-out: IC50
  IC50: 139 µM

## O=C(Nc1ccccc1C(=O)O)c1ccc(-c2ccccc2)cc1
[5]
  MIC: 13 µg/mL (≈ 41 µM)
[6]
  inhibition: 31%

## O=C(Nc1cc(Br)ccc1C(=O)O)c1cccc(Oc2ccccc2)c1
[9]
  MIC: 3 µg/mL (≈ 7.28 µM)
[10]
  MIC: 8 µg/mL (≈ 19.4 µM)
[11]
  MIC: > 25 µg/mL
[12]
  MIC: > 25 µg/mL
[5]
  MIC: 3 µg/mL (≈ 7.28 µM)
[7]; read-out: IC50
  IC50: 34 µM

## N#Cc1ccc(NC(=O)c2ccc(-c3ccccc3)cc2)c(C(=O)O)c1
[5]
  MIC: 7 µg/mL (≈ 20.4 µM)
[15]
  inhibition: 23%

## O=C(Nc1ccc(F)cc1C(=O)O)c1ccc(-c2ccccc2)cc1
[5]
  MIC: 7 µg/mL (≈ 20.9 µM)
[7]; read-out: IC50
  IC50: 138 µM

## O=C(Nc1cc(Cl)ccc1C(=O)O)c1ccc(-c2ccccc2)cc1
[9]
  MIC: 2 µg/mL (≈ 5.69 µM)
[10]
  MIC: 24 µg/mL (≈ 68.2 µM)
[11]
  MIC: > 50 µg/mL
[12]
  MIC: > 50 µg/mL
[5]
  MIC: 3 µg/mL (≈ 8.53 µM)
[7]; read-out: IC50
  IC50: 37 µM

## O=C(Nc1ccccc1C(=O)O)c1cccc(Oc2ccccc2)c1
[5]
  MIC: 9 µg/mL (≈ 27 µM)
[6]
  inhibition: 23%

## O=C(Nc1ccc(C(F)(F)F)cc1C(=O)O)c1ccc(-c2ccccc2)cc1
[8]
  Activity: Active
[9]
  MIC: 4 µg/mL (≈ 10.4 µM)
[10]
  MIC: 5 µg/mL (≈ 13 µM)
[11]
  MIC: > 50 µg/mL
[12]
  MIC: > 50 µg/mL
[1]
  Ratio IC50: 4
[2]
  IC50: 67 µM
[3]
  IC50: 28 µM
[4]
  IC50: 60 µM
[5]
  MIC: 2 µg/mL (≈ 5.19 µM)
[7]; read-out: IC50
  IC50: 28 µM

## O=C(Nc1cc(C(F)(F)F)ccc1C(=O)O)c1ccc(-c2ccccc2)cc1
[5]
  MIC: 5 µg/mL (≈ 13 µM)
[7]; read-out: IC50
  IC50: 27 µM

## O=C(Nc1ccc(-c2ccccc2)cc1C(=O)O)c1cccc(Oc2ccccc2)c1
[8]
  Activity: Active
[16]
  inhibition: inactive
[17]
  inhibition: inactive
[18]
  inhibition: inactive
[19]
  inhibition: inactive
[9]
  MIC: 3 µg/mL (≈ 7.33 µM)
[10]
  MIC: 6 µg/mL (≈ 14.7 µM)
[11]
  MIC: > 25 µg/mL
[12]
  MIC: > 25 µg/mL
[1]
  Ratio IC50: 2.8
[2]
  IC50: 27 µM
[3]
  IC50: 16 µM
[4]
  IC50: 47 µM
[5]
  MIC: 2 µg/mL (≈ 4.88 µM)
[7]; read-out: IC50
  IC50: 13 µM

## CCCC/C(C)=C/C=C(\C)C(=O)c1c(O)cc([C@H](C)CC/C=C/NC(=O)OC)oc1=O [MYXOPYRONIN B]
[9]
  MIC: 0.9 µg/mL (≈ 2.09 µM)
[10]
  MIC: 0.5 µg/mL (≈ 1.16 µM)
[11]
  MIC: > 25 µg/mL
[12]
  MIC: > 25 µg/mL
[5]
  MIC: 1 µg/mL (≈ 2.32 µM)
[7]; read-out: IC50
  IC50: 0.35 µM

## O=C(Nc1ccc(Br)cc1C(=O)O)c1ccc(-c2ccccc2)cc1
[5]
  MIC: 3 µg/mL (≈ 7.57 µM)
[7]; read-out: IC50
  IC50: 31 µM

## O=C(Nc1cc(-c2ccccc2)ccc1C(=O)O)c1cccc(Oc2ccccc2)c1
[5]
  MIC: 8 µg/mL (≈ 19.5 µM)
[7]; read-out: IC50
  IC50: 14 µM

## COc1ccc(C(=O)O)c(NC(=O)c2ccc(-c3ccccc3)cc2)c1
[5]
  MIC: 9 µg/mL (≈ 25.9 µM)
[7]; read-out: IC50
  IC50: 162 µM

## COc1ccc(NC(=O)c2ccc(-c3ccccc3)cc2)c(C(=O)O)c1
[5]
  MIC: 8 µg/mL (≈ 23 µM)
[6]
  inhibition: 52%

## O=C(Nc1cc(F)ccc1C(=O)O)c1ccc(-c2ccccc2)cc1
[5]
  MIC: 4 µg/mL (≈ 11.9 µM)
[7]; read-out: IC50
  IC50: 98 µM

## O=C(Nc1c(Cl)cccc1C(=O)O)c1ccc(-c2ccccc2)cc1
[5]
  MIC: 55 µg/mL (≈ 156 µM)
[7]
  IC50: Not Active

## CCCN(CCC)S(=O)(=O)c1ccc(C(=O)Nc2cc3ccccc3cc2C(=O)O)cc1
[1]
  Ratio IC50: 2.6
[2]
  IC50: 81 µM
[3]
  IC50: 52 µM
[4]
  IC50: 97 µM

## COc1cccc(NC(=O)c2ccc(-c3ccccc3)cc2)c1C(=O)O
[5]
  MIC: 58 µg/mL (≈ 167 µM)
[7]
  IC50: Not Active
